Read-outs that look alike come from different tables or passages of the source.
How the values were obtained:
[1] = biological target: T1, human Cot catalytic domain (30-397 amino acids) (Homo sapiens, UniProt P41279); assay: High Throughput Cot Biochemical Assay (KinEASE TR-FRET); conditions: 400 μM ATP, read-out: IC50 HTRF
T1 construct: Purified recombinant human Cot catalytic domain (30-397 amino acids) was purchased from Cama Biosciences; purchased Cama Biosciences (so in the source)
Procedure, shortened: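 Phosphorylation of 1 μM XL665-STK3 peptide by 5 nM Cot catalytic domain was measured by time-resolved FRET using a europium […] antibody. ATP was 400 μM; buffer was 10 mM MOPS pH 7.0 with Mg2+ and DTT.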

[2] = test system: TNFα production in LPS-stimulated human monocytes; assay: Cot Monocyte TNFα Cell Based Assay; conditions: Homo sapiens, Monocyte, read-out: EC50 TNF
Procedure, shortened: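 Percent-of-control values derive from TR-FRET ratios of TNFα in spun-down media, referenced to unstimulated and LPS-stimulated wells. Exposure: 1 h compound preincubation, then 50 pg/ml LPS for 4 h, both at 37 °C, with 0.5% final DMSO.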

[3] = LPS-stimulated human monocytes, TNFα TR-FRET
[4] = Cot KinEASE TR-FRET (HTRF) biochemical assay
[5] = TNFα in LPS-stimulated human monocytes

T1 sequence (P41279 30-397): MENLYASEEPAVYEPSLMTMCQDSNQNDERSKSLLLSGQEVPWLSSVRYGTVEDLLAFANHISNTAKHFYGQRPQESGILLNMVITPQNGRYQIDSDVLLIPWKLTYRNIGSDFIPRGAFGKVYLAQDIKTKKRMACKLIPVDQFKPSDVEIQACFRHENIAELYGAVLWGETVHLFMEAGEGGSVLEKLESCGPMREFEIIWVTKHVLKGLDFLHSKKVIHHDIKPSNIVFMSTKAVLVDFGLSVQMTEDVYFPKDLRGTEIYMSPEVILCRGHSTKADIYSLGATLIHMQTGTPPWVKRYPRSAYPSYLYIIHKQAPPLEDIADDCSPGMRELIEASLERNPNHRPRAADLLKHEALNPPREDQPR

SMILES	IC50 ([1]; Cot KinEASE TR-FRET)	EC50 [2, 3]	IC50 [1, 4]	EC50 [2, 5]
N#Cc1cnc2c(Cl)cc(N[C@@H](c3ccc(F)cc3)c3cn(-c4ccccc4C(F)(F)F)nn3)cc2c1Nc1cnc(F)c(F)c1 [Example 336, (S)-8-chloro-4-((5,6-difluoropyridin-3-yl)amino)-6-(((4-fluorophenyl)(1-(2-(trifluoromethyl)phenyl)-1H-1,2,3-triazol-4-yl)methyl)amino)quinoline-3-carbonitrile]	–	–	71 nM	619 nM
Cc1ccccc1[C@H](Nc1cc(Cl)c2ncc(C#N)c(NCC(C)(C)C)c2c1)c1cn(C2CC2)nn1 [Compound 3]	–	–	7 nM	246 nM
[2H][C@](Nc1cc(Cl)c2ncc(C#N)c(N[C@@H](CCC#N)c3ccccc3)c2c1)(c1ccc(F)cc1)c1cn(C2CC2)nn1 [Example 248, 8-chloro-4-(((S)-3-cyano-1-phenylpropyl)amino)-6-(((S)-(1-cyclopropyl-1H-1,2,3-triazol-4-yl)(4-fluorophenyl)methyl-d)amino)quinoline-3-carbonitrile]	–	–	3200 nM	> 10000 nM
CC(C)(C)N1CCC(n2cc([C@@H](Nc3cc(Cl)c4ncc(C#N)c(Nc5ccc(F)c(Cl)c5)c4c3)c3cccc(-c4ncco4)c3)nn2)CC1 [Compound 23]	–	–	2 nM	95 nM

Other lines, results leading:

IC50 ([1]; Cot KinEASE TR-FRET)	EC50 [2, 3]	IC50 [1, 4]	EC50 [2, 5]	SMILES
10 nM	262 nM	–	–	Cc1c(-c2cccnc2)cccc1[C@H](Nc1cc(Cl)c2ncc(C#N)c(NCC(C)(C)C)c2c1)c1cn(C2(C(F)(F)F)CC2)nn1 [Example 1096, (S)-8-chloro-6-(((2-methyl-3-(pyridin-3-yl)phenyl)(1-(1-(trifluoromethyl)cyclopropyl)-1H-1,2,3-triazol-4-yl)methyl)amino)-4-(neopentylamino)quinoline-3-carbonitrile]
22 nM	934 nM	–	–	COC(=O)c1cc([C@H](Nc2cc(Cl)c3ncc(C#N)c(NCC(C)(C)C)c3c2)c2cn(C3(C(F)(F)F)CC3)nn2)ccc1F [Example 1088, methyl (S)-5-(((8-chloro-3-cyano-4-(neopentylamino)quinolin-6-yl)amino)(1-(1-(trifluoromethyl)cyclopropyl)-1H-1,2,3-triazol-4-yl)methyl)-2-fluorobenzoate]
2 nM	36 nM	–	–	Cc1c(C#N)cccc1[C@H](Nc1cc(C#N)c2ncc(C#N)c(NCC(C)(C)C(F)(F)F)c2c1)c1cn(C23CC(C2)C3)nn1 [Example 1151, (S)-6-(((1-(bicyclo[1.1.1]pentan-1-yl)-1H-1,2,3-triazol-4-yl)(3-cyano-2-methylphenyl)methyl)amino)-4-((3,3,3-trifluoro-2,2-dimethylpropyl)amino) quinoline-3,8-dicarbonitrile]
3 nM	215 nM	–	–	Cc1c([C@H](Nc2cc(Cl)c3ncc(C#N)c(NCC(C)(C)C)c3c2)c2cn(C3(C(F)(F)F)CC3)nn2)cccc1-n1cnnc1 [Example 1071, (S)-8-chloro-6-(((2-methyl-3-(4H-1,2,4-triazol-4-yl)phenyl)(1-(1-(trifluoromethyl)cyclopropyl)-1H-1,2,3-triazol-4-yl)methyl)amino)-4-(neopentylamino)quinoline-3-carbonitrile]
–	–	83 nM	1260 nM	N#Cc1cnc2c(Cl)cc(N[C@@H](c3ccc(F)cc3)c3cn(-c4ccncc4)nn3)cc2c1Nc1cnc(F)c(F)c1 [Example 388, (S)-8-chloro-4-((5,6-difluoropyridin-3-yl)amino)-6-(((4-fluorophenyl)(1-(pyridin-4-yl)-1H-1,2,3-triazol-4-yl)methyl)amino)quinoline-3-carbonitrile]
75 nM	553 nM	–	–	CC(C)(C)CNc1c(C#N)cnc2c(Cl)cc(N[C@@H](c3ccccc3)c3cn(C4(C(F)(F)F)CC4)nn3)cc12 [Example 1059, (S)-8-chloro-4-(neopentylamino)-6-((phenyl(1-(1-(trifluoromethyl)cyclopropyl)-1H-1,2,3-triazol-4-yl)methyl)amino)quinoline-3-carbonitrile]
